ChEMBL document CHEMBL1201862, “PubChem BioAssay data set” (2004)
Calls of active or inactive are those of the source.

Key:
Fatty acid synthase [1] = molecular target: T1, Fatty acid synthase (Homo sapiens, UniProt P49327); assay: FAS thioesterase domain inhibitors, dose response, biochemical, kinetic fluorescence intensity (AID 624326); format: functional;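 also: rate of fluorescence rise from hydrolysis of a fluorogenic O-methyl fluorescein ester substrate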
[2] = (§1) Late stage assay provider results from the probe development effort to identify inhibitors of Protein Phosphatase Methylesterase 1 (PME-1): luminescence-based […] dose response assay to determine cytotoxicity of inhibitor compounds. [Related pubchem assays (depositor defined):AID2130, AID2143, AID2171, AID2174, AID2177, AID2232, AID2233, AID2291, AID2363, AID2365, AID2366, AID2368, AID2369, AID2371, AID463124, AID463130, AID463131, AID463132, AID463146, AID463149] Panel member name: Serum-free Media; format: toxicity
[3] = as §1, with “Fetal Calf Serum” for “Serum-free Media”; format: toxicity
[4] = molecular target: Protein phosphatase methylesterase 1 (Homo sapiens, UniProt Q9Y570); assay: Late stage assay provider results from the probe development effort to identify inhibitors of protein phosphatase methylesterase 1 (PME-1): Gel-based Activity-Based Protein Profiling (ABPP) IC50 Set 2. [Related pubchem assays (depositor defined):AID2130, AID2143, AID2171, AID2174, AID2177, AID2232, AID2233, AID2291, AID2363, AID2365, AID2366, AID2368, AID2369, AID2371, AID463090, AID463091]; format: functional
Fatty acid synthase [5] = molecular target: T1, Fatty acid synthase; assay: FAS thioesterase domain inhibitors, dose response, biochemical, endpoint fluorescence intensity, uHTS hits (AID 624327); format: functional;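 also: fluorescence from hydrolysis of an O-methyl fluorescein acyl ester substrate by the enzyme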
[6] = growth induction of Burl-1 ts yeast mutant, dose response, counter-screen for SUMOylation pathway inhibitor project, whole organism, S. cerevisiae, luminescence (AID 463199); format: functional
[7] = molecular target: Eukaryotic translation initiation factor 4E (Mus musculus, UniProt P63073); assay: eIF4E–eIF4G protein interaction inhibitors, dose response, biochemical, TR-FRET (AID 855); format: functional;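 also: potency for disrupting eIF4E binding to eIF4GI seen as loss of FRET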
Sequence of Eukaryotic translation initiation factor 4E (P63073 whole entry): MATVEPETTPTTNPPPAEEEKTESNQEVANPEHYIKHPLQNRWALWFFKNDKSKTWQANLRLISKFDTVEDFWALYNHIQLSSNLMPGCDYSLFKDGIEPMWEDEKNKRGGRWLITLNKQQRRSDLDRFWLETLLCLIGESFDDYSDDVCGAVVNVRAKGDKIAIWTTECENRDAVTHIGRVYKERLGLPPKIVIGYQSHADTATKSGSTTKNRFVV

Hexokinase HKDC1 = Hexokinase HKDC1 (Homo sapiens, UniProt Q2TB90); assay: HKDC1 hexokinase inhibitors, dose response, biochemical, W721R variant (AID 504729); format: functional
SUMO-activating enzyme [8] = molecular target: T2, SUMO-activating enzyme (Homo sapiens, UniProt Q9UBT2); assay: inhibitors of in vitro SUMOylation cascade, primary screen, biochemical, HTRF, uHTS (AID 2006); format: protein-complex assay
T2 sequence (Q9UBE0 whole entry): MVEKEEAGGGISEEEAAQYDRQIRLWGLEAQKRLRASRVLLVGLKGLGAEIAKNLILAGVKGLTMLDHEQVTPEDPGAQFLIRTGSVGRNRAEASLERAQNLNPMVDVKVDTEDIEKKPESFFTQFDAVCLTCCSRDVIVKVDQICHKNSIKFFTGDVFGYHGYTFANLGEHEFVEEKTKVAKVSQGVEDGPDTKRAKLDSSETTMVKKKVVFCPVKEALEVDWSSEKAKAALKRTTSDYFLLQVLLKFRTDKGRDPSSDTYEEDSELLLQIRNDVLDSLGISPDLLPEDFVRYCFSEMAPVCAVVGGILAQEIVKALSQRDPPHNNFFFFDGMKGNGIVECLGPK
T2 sequence (Q9UBT2 whole entry): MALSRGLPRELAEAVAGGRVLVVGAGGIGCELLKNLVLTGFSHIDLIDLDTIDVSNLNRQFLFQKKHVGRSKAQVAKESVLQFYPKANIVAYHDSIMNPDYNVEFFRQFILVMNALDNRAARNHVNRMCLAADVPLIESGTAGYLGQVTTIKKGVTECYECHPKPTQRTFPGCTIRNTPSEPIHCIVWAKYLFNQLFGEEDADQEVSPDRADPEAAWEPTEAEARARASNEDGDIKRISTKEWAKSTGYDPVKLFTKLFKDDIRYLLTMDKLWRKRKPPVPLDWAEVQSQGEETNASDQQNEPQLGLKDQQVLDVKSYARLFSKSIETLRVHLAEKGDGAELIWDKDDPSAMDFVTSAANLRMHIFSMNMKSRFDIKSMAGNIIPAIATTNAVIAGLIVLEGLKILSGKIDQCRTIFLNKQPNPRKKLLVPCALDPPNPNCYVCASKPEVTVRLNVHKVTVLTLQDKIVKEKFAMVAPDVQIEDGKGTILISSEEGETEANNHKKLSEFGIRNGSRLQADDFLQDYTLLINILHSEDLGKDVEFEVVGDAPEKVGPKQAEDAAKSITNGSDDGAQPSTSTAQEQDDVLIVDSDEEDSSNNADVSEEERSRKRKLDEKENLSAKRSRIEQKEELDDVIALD

SUMO-activating enzyme [9] = molecular target: T2, SUMO-activating enzyme; assay: SUMOylation inhibitor hit validation, confirmation, SUMOylation inhibitor project, biochemical, AlphaScreen (AID 2018); format: functional
[10] = molecular target: T3, Replicative DNA helicase DnaB (Mycobacterium tuberculosis, UniProt P9WMR3); assay: DnaB intein splicing inhibitors, dose response, biochemical, cell-free fluorescence (AID 449749); format: functional
T3 sequence (P9WMR3 whole entry): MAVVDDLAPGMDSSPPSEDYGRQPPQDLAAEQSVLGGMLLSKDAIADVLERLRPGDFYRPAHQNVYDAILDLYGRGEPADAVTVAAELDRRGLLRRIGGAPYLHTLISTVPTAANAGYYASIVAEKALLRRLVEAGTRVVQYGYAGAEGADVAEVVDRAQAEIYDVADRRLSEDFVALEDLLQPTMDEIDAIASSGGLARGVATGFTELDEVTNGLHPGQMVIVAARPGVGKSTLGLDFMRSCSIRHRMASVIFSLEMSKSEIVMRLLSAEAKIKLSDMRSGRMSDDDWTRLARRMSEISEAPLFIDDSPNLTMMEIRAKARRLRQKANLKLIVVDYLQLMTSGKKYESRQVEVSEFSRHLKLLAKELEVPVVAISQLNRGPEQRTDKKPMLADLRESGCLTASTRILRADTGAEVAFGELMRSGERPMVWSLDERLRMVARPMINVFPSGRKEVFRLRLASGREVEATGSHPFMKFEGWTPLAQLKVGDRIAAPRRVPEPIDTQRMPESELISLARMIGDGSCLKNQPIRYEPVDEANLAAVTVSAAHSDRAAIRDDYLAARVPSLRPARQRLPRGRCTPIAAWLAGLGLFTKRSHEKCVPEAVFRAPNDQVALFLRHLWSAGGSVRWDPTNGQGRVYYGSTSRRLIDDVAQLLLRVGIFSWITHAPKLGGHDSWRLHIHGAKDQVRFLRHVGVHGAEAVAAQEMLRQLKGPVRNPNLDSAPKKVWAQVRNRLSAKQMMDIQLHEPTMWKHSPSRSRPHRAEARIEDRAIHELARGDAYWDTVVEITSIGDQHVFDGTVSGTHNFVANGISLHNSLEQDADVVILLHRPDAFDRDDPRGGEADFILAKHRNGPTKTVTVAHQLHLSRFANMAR

Protein RecA = molecular target: T4, Protein RecA (Mycobacterium tuberculosis, UniProt P9WHJ3); assay: Fluorescence Cell-Free Homogeneous Dose Retest to Identify Inhibitors of RecA-Intein Splicing Activity. [Related pubchem assays (depositor defined):AID2097, AID2223, AID489010, AID492950]; format: functional
T4 sequence (P9WHJ3 whole entry): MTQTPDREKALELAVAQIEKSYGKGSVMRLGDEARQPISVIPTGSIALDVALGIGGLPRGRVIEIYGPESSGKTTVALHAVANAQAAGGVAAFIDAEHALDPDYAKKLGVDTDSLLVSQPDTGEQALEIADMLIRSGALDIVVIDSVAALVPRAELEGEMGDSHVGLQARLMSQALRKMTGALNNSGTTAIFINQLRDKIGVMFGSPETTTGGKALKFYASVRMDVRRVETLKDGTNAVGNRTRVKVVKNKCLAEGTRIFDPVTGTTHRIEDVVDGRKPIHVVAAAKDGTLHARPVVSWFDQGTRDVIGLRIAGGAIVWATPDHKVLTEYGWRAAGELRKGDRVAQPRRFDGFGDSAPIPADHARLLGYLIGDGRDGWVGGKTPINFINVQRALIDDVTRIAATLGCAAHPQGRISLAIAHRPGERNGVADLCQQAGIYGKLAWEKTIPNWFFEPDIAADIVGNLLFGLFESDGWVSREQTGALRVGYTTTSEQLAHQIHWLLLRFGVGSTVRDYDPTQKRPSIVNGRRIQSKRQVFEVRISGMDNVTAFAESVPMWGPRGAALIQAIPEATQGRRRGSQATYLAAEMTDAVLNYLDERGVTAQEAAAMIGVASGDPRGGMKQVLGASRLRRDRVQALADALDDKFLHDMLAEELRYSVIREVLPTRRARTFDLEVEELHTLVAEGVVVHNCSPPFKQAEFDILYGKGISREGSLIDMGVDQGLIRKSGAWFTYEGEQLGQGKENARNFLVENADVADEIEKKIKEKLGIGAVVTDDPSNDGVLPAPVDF

SUMO E1/E2 = SUMO E1/E2 (Homo sapiens, UniProt P63279+Q9UBE0+Q9UBT2); assay: SAR analysis of SUMOylation using HTRF in an in-Vitro dose response assay. [Related pubchem assays (depositor defined):AID2006, AID2011, AID2018, AID2069, AID2658]; format: functional
[11] = molecular target: T5, Mannose-6-phosphate isomerase (Homo sapiens, UniProt P34949); assay: PMI enzyme inhibitors, confirmation, biochemical, fluorescence intensity (AID 1535)
T5 sequence (P34949 whole entry): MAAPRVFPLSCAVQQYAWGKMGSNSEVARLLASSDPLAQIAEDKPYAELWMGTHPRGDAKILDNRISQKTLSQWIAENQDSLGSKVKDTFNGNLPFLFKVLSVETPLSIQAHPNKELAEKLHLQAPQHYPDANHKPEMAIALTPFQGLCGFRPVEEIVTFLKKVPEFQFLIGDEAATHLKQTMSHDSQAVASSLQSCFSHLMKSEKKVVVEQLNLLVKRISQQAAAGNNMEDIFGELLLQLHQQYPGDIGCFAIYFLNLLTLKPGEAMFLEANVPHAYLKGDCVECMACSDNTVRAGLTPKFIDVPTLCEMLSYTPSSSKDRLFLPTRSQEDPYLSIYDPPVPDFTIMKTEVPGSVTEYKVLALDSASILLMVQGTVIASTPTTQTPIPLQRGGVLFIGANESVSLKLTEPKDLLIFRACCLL

Phosphomannomutase 2 = Phosphomannomutase 2 (Homo sapiens, UniProt O15305); assay: Counter screen SAR assay for PMM2 inhibitors via a fluorescence intensity assay. [Related pubchem assays (depositor defined):AID1545, AID1574]
Sequence of Phosphomannomutase 2 (O15305 whole entry): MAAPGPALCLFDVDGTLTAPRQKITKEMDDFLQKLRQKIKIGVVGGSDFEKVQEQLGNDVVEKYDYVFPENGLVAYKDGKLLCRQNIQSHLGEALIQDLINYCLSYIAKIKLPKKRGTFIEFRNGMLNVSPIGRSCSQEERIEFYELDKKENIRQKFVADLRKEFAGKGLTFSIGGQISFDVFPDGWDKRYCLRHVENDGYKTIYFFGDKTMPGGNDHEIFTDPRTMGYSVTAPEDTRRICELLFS

[12] = molecular target: Luciferin 4-monooxygenase (Photinus pyralis, UniProt P08659); assay: firefly luciferase enzyme inhibitors, dose response, biochemical, luminescence (AID 1891)
[13] = Fluorescence Cell-Based Dose Response to Identify Inhibitors of Thrombin Receptor-Activating Peptide SFLLRN-Mediated P-Selectin Induction on Platelets. [Related pubchem assays: 1663 (Primary HTS), 1889 (retest at dose ), 1891 (counterscreen), 1678 (Project Summary)]; format: functional
[14] = molecular target: Lysine-specific demethylase 4C (Homo sapiens, UniProt Q9H3R0); assay: GASC-1 (JMJD2C) histone demethylase inhibitors, dose response, biochemical, DELFIA europium, cherry-picked samples (AID 488835); format: functional
Sequence of Lysine-specific demethylase 4C (Q9H3R0 whole entry): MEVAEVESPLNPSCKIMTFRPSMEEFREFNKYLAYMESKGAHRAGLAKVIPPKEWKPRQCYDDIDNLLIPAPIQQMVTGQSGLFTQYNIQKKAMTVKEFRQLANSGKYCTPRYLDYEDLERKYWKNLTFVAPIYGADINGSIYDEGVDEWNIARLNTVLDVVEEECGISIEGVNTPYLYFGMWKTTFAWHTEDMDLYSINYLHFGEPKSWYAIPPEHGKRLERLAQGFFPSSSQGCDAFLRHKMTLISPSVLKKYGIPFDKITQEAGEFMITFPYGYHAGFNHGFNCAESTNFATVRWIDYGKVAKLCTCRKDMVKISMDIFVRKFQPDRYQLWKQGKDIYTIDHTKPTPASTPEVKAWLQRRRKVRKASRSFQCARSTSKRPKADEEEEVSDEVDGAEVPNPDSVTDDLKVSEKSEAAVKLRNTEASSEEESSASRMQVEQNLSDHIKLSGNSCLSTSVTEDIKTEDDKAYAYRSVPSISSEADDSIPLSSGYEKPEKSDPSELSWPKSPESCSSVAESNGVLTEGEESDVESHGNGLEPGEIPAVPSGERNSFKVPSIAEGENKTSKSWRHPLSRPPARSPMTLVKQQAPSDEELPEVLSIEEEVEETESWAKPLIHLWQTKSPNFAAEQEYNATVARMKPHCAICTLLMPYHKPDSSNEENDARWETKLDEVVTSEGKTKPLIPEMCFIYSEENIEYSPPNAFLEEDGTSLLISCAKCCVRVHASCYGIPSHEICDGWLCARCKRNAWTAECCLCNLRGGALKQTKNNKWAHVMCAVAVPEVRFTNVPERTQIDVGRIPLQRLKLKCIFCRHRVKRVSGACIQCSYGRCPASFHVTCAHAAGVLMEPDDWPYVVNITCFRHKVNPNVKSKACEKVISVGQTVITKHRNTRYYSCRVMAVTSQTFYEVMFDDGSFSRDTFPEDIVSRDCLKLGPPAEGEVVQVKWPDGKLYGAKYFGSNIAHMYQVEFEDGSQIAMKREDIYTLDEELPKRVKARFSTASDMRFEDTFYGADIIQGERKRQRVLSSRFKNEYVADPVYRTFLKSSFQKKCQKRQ

[15] = Luminescence Cell-Based Dose Confirmation HTS to Identify Inhibitors of Platelet Dense Granule Release. [Related pubchem assays: 1663 (Primary HTS), 1678 (Summary of Project)]; format: functional

T1 sequence (P49327 whole entry, the tested form may be a part): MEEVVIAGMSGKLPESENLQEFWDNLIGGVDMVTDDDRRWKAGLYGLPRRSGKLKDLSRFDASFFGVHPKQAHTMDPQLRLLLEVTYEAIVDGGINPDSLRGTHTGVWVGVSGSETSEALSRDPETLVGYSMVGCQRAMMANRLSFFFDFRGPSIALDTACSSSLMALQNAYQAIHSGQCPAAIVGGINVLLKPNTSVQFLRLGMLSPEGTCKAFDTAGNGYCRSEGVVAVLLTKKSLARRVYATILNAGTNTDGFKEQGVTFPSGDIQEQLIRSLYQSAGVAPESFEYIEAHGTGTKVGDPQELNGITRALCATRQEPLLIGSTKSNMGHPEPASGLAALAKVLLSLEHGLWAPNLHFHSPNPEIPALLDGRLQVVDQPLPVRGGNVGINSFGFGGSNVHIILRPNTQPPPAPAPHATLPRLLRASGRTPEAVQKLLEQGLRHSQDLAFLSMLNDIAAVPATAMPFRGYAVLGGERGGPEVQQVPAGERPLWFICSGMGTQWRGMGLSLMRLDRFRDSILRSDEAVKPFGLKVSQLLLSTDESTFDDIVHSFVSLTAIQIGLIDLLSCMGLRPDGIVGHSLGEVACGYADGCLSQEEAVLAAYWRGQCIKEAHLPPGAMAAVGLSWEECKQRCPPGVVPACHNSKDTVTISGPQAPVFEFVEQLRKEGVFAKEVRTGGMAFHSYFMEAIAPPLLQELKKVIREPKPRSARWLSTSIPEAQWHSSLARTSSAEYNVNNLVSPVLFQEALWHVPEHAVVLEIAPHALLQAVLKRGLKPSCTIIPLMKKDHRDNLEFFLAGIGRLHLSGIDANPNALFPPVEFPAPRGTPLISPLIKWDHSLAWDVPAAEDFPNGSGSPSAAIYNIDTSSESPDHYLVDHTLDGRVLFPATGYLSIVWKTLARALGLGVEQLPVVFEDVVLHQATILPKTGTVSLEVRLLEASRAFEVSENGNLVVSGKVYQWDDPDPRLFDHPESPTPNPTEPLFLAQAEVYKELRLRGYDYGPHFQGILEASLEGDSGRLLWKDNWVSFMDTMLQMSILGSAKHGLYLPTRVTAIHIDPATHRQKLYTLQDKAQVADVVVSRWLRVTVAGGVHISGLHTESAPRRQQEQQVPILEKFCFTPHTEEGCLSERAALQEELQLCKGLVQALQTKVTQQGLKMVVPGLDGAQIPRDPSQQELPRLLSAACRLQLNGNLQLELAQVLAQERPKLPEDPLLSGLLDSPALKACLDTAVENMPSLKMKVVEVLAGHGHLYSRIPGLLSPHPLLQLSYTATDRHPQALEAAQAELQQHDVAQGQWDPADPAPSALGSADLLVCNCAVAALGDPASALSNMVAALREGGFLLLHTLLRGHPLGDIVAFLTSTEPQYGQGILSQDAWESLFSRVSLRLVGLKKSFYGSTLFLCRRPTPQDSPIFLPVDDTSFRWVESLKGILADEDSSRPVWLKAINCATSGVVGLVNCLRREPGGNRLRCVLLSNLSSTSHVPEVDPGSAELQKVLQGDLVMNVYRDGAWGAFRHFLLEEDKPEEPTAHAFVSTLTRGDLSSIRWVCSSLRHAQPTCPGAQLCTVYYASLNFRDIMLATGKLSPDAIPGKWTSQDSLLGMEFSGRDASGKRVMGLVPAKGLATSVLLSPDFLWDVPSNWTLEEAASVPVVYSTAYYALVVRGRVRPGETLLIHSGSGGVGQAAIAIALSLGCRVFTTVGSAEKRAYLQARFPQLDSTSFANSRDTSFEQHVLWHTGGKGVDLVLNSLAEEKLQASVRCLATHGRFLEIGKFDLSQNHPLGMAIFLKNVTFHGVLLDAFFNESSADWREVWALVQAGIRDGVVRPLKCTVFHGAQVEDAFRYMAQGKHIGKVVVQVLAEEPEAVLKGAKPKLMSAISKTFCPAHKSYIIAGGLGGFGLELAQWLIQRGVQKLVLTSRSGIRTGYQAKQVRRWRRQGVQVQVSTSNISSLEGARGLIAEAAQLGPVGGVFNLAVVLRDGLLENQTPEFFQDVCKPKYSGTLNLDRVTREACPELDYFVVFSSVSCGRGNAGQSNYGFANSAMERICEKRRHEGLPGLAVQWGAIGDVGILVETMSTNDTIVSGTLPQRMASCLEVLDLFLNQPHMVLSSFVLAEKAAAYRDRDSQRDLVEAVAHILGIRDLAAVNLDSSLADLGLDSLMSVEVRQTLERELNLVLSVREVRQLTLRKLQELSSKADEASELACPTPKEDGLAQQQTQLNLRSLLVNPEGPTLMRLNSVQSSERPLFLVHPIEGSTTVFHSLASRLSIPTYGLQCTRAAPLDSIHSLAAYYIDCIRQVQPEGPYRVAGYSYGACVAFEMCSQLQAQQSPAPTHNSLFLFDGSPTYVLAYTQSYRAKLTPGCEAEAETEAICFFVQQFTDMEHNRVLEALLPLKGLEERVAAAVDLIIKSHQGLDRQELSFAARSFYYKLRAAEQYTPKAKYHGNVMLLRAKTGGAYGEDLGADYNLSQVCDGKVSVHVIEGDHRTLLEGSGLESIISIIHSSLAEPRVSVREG

Q: Which IC50 (Fatty acid synthase [1]) does the source give for `COC(=O)N1C(=O)[C@](c2ccccc2)(C2CCCC2)N1C(=O)OC` here?
A: 0.715 µM (active)

Q: What about the CC50 [2] of the same molecule?
A: > 50 µM (inactive)

Q: What about the CC50 [3] of the same molecule?
A: > 50 µM (inactive)

Q: And the IC50 [4]?
A: 0.01 µM (active)

Q: And the IC50 (Fatty acid synthase [5])?
A: 0.884 µM (active)

Q: Which AC50 [6] does the source give for `O=C1CC(c2ccccc2)C(=O)N1c1cccc(O)c1` (centres undefined) here?
A: 53.6 µM (active)

Q: Which IC50 [7] does the source give for `O=C(/C=C/c1cccs1)Nc1scc(-c2ccccc2)c1C(=O)O` here?
A: 5.76 µM (active)

Q: What about the IC50 (Hexokinase HKDC1) of the same molecule?
A: 7 µM (active)

Q: What about the IC50 (SUMO-activating enzyme [8]) of the same molecule?
A: 9.84 µM (active)

Q: And the IC50 (SUMO-activating enzyme [9])?
A: 2.74 µM (active)

Q: What about the AC50 [10] of the same molecule?
A: 23.3 µM (active)

Q: And the EC50 (Protein RecA)?
A: 10.6 µM (active)

Q: And the IC50 (SUMO E1/E2)?
A: 6.11 µM (active)

Q: For `Cc1cccc(/N=c2\ssnc2Cl)c1`, which IC50 [11] is on record?
A: > 100 µM (inactive)

Q: What about the IC50 (Phosphomannomutase 2) of the same molecule?
A: > 100 µM (inactive)

Q: For `COc1ccc(/C=N/N(C)c2cc(=O)n(C)c(=O)[nH]2)cc1OC`, which EC50 [12] is on record?
A: > 112 µM (not active)

Q: What about the EC50 [13] of the same molecule?
A: < 1 µM (active)

Q: What about the AC50 [14] of the same molecule?
A: 17.8 µM (active)

Q: And the EC50 [15]?
A: 0.693 µM (active)
